Test results: BigSolDB 2.1

C1OCOCO1
solubility (mole fraction)
Details | in dimethoxymethane | in ethanol | in isopropanol | in methanol
288.15 K | 0.32 | 0.136 | 0.17 | 0.167
293.15 K | 0.371 | 0.175 | 0.213 | 0.21
297.15 K | 0.416 | – | – | –
298.15 K | – | 0.228 | 0.268 | 0.26
300.15 K | 0.452 | – | – | –
303.15 K | 0.489 | 0.29 | 0.331 | 0.318
306.15 K | 0.527 | – | – | –
308.15 K | – | 0.362 | 0.417 | 0.398
309.15 K | 0.567 | – | – | –
312.15 K | 0.608 | – | – | –
313.15 K | – | 0.457 | 0.511 | 0.517
318.15 K | – | 0.591 | 0.643 | 0.645
321.15 K | – | – | – | 0.8
323.15 K | – | 0.74 | 0.793 | –
328.15 K | – | 0.913 | 0.945 | –
